{"source": "patent US9696323B2", "about": "“Biomarkers for chagas disease related cardiomyopathy” (THE BOARD OF REGENTS OF THE UNIVERSITY OF TEXAS SYSTEM, priority 2013, dated 2017)", "key": {"[1]": {"assay": "2D-GE plasma proteome profile (differential protein expression) of T. cruzi-infected rats treated with PBN and/or BZ", "type": "in vivo, rat", "details": "plasma", "excerpt": "Certain embodiments include biomarkers identified in a previous study. Parasite persistence and oxidative damage in the heart are known to be of pathological significance during Chagas disease (Zacks et al., (2005) An Acad Bras Cienc, 77, 695-715; Gupta et al., (2009) Interdiscip Perspect Infect Dis, 2009, 190354). […] In the previous study the inventors identified 92 proteins that were differentially expressed or oxidized in chagasic plasma. Functional analysis allocated a majority of these proteins to inflammation/immunity and lipid metabolism categories, and to molecular pathways associated with cardiovascular dysfunction, e.g., myocardial infarction, hypertrophy, and fibrosis, and pulmonary embolism and hypertension. Some proteins in chagasic rats treated with PBN and/or BZ were allocated to curative pathways (immune regulation and cardiac remodeling). The 2D-GE results were validated by Western blotting. […] Increased plasma levels of GSN, MYL2, and VIM were directly correlated with the severity of cardiac disease in human chagasic patients. […] These findings have utility in diagnosing disease severity and designing suitable therapy for management of human chagasic patients.\nIngenuity Pathway Analysis (IPA) is a highly curated and comprehensive software used for the integration of proteins into networks and pathways with biological meaning (Thomas and Bonchev, (2010). Hum Genomics, 4, 353-360). Network analysis of the plasma proteome profile of chagasic rats identified four major sub-networks linked to host response to T. cruzi infection and disease development (Table V). The maximal numbers of the differentially expressed plasma proteins (19 proteins) in chagasic rats were associated with antigen presentation and inflammatory response category (Table V) and indicators of persistent inflammation, known to be of pathological significance in Chagas disease (Dhiman et al., (2009) Clinical and Vaccine Immunology, 16, 660-666; Tanowitz et al., (2009) Prog Cardiovasc Dis, 51, 524-539; Junqueira et al., (2010) Expert Rev Mol Med, 12, e29). Following functional analysis of the inflammation-associated proteins, 12 proteins (APOA1, APOE, C3, CFB, CFH, FGB, GSN, KRT10, PLG, SCG2, SERPINA1, and SERPINC1) were identified as being involved in immune cell trafficking and cell movement of leukocytes, granulocytes, phagocytes, neutrophils, and dendritic and antigen presenting cells. Some of the differentially expressed proteins in inflammation category were associated with activation (APOE, C3, CFH, GC and PLG), chemotaxis (C3, SCG2, SERPINA1, SERPINC1), and infiltration of leukocytes (APOA1, APOE, C3, PLG, KRT10) and neutrophils (C3, CFB, CFH, PLG). Up regulation of APOE, APOA1, APOH, GC and PLG in chagasic plasma was indicative of activation, binding and accumulation of macrophages in the disease state. Of the 19 differentially expressed inflammation-associated proteins, 11 proteins (APOE, C3, CFB, CFH, GSN, KRT10, SCG2, SERPINA1, SERPINC1, GC, and PLG) were carbonylated in chagasic plasma. […] Other proteins (APOE, C3, KRT3, and SCG2) were exposed to oxidation due to T. cruzi-induced, acute oxidative stress, but were normalized in expression and oxidation during the chronic phase.\nSeventeen of the differentially expressed proteins in chagasic plasma, i.e., AFM, C4BPA, CACNA1D, DLGAP2, GC, KNG1, MUG1, MYLPF, MY05A, MY05B, PRPH, PZP, RAI14, and SCG2, were allotted to the lipid metabolism/molecular transport/small molecule biochemistry category (Table V) and functionally linked by IPA network analysis to lipid, fatty acid, and carbohydrate metabolism. A majority of the proteins in this category, i.e., ALB, APOA1, APOA4, APOE, APOH, C3, GC, GNAQ, MY05A, PLG, SCD2, SERPINA1, SERPINC1 and VIM, were linked to the synthesis, metabolism, transport, and modification of lipids and fatty acids, and to uptake and release or efflux of lipids, eicosanoids, and cholesterol. […]"}, "T. cruzi": {"system": "T. cruzi", "details": "infected rats; BZ parasite-induced, PBN oxidative stress-induced (Wen et al. 2006, 2010); cited from earlier work"}}, "data": [{"smiles": "CC(C)(C)/[N+]([O-])=C/c1ccccc1", "note": "[PBN]", "values": [{"measurement": "Spot# 106 Average Normalized Density × 100,000", "setting": "[1]; RAP group (acute infection)", "result": 1.70}, {"measurement": "Spot# 106 Average Normalized Density × 100,000", "setting": "[1]; RCP/RCB/RCPB groups (chronic infection)", "result": 6.94}, {"measurement": "controlling parasite- and oxidative stress-induced pathology", "setting": "T. cruzi", "result": "beneficial effects"}]}]}
